According to article doi:10.1101/757047v1 (biorxiv, 2019):
Where two headings read alike, the source gives them in different places.

What was measured:
GAK [1] = target: T1, GAK (Homo sapiens, UniProt O14976); test: biochemical
T1 sequence (O14976 12-347 limits assumed): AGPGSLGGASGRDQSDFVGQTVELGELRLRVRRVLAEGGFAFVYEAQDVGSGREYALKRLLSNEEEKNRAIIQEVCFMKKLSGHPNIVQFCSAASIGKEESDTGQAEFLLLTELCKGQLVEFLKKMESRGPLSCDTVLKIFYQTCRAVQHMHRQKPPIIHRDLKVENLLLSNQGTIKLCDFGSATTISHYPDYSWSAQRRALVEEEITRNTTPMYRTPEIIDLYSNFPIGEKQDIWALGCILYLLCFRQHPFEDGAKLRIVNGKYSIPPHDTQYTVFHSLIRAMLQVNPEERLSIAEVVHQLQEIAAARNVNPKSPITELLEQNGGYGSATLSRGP

SLK [2] = target: T2, SLK (Homo sapiens, UniProt Q9H2G2); test: biochemical
T2 sequence (Q9H2G2 34-292): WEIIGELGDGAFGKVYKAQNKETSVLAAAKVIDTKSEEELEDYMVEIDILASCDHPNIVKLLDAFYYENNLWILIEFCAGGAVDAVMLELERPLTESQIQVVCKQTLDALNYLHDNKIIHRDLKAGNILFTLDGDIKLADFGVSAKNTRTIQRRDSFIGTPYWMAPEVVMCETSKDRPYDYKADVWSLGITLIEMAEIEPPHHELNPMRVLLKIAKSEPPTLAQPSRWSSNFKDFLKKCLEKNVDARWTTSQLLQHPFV

STK10 [3] = target: T3, STK10 (Homo sapiens, UniProt O94804); test: biochemical
T3 sequence (O94804 36-294 limits assumed): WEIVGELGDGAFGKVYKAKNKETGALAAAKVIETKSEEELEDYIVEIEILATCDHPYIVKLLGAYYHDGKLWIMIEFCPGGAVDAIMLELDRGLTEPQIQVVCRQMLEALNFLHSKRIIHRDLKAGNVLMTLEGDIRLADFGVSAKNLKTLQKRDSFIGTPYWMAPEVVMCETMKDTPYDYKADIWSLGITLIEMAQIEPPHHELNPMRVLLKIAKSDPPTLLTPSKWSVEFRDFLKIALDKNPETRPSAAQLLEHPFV

[4] = target: T4, full length GAK protein N-terminally fused with NanoLuc luciferase (Homo sapiens, UniProt O14976); test: cell-based; design: species or system HEK293T
T4 sequence (O14976 2-1311): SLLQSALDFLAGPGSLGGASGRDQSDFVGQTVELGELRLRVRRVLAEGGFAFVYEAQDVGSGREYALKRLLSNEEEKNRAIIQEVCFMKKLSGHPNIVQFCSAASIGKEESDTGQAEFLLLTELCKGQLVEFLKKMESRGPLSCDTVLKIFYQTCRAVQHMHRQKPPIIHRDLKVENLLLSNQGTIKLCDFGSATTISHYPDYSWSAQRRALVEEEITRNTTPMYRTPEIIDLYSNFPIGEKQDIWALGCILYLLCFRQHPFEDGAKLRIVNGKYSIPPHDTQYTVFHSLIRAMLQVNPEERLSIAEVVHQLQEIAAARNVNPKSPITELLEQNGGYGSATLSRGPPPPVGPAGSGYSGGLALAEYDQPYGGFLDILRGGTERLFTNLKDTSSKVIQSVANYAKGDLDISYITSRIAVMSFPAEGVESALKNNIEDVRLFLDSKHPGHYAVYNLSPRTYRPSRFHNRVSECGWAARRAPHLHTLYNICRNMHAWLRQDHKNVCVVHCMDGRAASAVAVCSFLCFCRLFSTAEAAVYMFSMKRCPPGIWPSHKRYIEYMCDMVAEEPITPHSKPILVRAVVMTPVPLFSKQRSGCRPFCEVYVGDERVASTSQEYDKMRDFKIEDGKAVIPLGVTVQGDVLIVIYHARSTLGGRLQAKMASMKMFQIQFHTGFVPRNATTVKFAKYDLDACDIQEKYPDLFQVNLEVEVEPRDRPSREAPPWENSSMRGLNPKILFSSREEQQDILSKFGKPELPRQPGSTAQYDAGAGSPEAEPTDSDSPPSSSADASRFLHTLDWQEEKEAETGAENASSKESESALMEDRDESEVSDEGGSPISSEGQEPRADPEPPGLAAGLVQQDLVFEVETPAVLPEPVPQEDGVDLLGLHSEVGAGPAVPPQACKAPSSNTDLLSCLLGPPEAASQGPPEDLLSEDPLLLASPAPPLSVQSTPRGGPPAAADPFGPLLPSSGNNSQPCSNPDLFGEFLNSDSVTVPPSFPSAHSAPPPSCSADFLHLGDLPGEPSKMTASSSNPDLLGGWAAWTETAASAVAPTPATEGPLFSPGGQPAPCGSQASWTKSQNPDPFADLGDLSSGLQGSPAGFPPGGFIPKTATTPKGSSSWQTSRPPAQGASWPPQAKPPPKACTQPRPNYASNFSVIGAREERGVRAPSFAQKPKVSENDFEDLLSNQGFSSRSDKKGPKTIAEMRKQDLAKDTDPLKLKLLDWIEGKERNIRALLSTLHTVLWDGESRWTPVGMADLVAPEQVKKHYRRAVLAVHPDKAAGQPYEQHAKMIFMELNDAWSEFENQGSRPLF

SLK [5] = target: T2, SLK; test: biochemical; remark: listed apart in the source
[6] = target: T4, full length GAK protein N-terminally fused with NanoLuc luciferase; test: cell-based; design: species or system HEK293T; remark: listed apart in the source
GAK [7] = target: T1, GAK; test: biochemical; remark: listed apart in the source
GAK [8] = target: T1, GAK; test: biochemical; remark: listed apart in the source
SLK [9] = target: T2, SLK; test: biochemical; remark: listed apart in the source
STK10 [10] = target: T3, STK10; test: biochemical; remark: listed apart in the source
[11] = target: T4, full length GAK protein N-terminally fused with NanoLuc luciferase; test: cell-based; design: species or system HEK293T; remark: listed apart in the source
SLK [12] = target: T2, SLK; test: TR-FRET binding displacement assay
STK10 [13] = target: T3, STK10; test: TR-FRET binding displacement assay
GAK [14] = target: T1, GAK; test: biochemical; remark: listed apart in the source
SLK [15] = target: T2, SLK; test: biochemical; remark: listed apart in the source
STK10 [16] = target: T3, STK10; test: biochemical; remark: listed apart in the source
[17] = target: T4, full length GAK protein N-terminally fused with NanoLuc luciferase; test: cell-based; design: species or system HEK293T; remark: listed apart in the source

Compound	Ki (GAK [1]) [µM]	Ki (SLK [2]) [µM]	Ki (STK10 [3]) [µM]	IC50 [4] [µM]	Ki (GAK [8]) [µM]	IC50 [11] [µM]	Ki (SLK [15]) [µM]	Ki (STK10 [16]) [µM]	IC50 [17] [µM]	other results
COc1cc(Nc2c(C#N)cnc3ccccc23)cc(OC)c1OC [compound 43, 43]	0.0088	7.7	4.7	0.33	–	–	–	–	–	–
COc1cc(Nc2c(C#N)cnc3ccc(Cl)cc23)cc(OC)c1OC [compound 44, 44]	0.0038	53	26	0.24	–	–	–	–	–	–
COc1cc(Nc2c(C#N)cnc3ccc(Br)cc23)cc(OC)c1OC [compound 45, 45]	0.0023	9.4	–	0.2	–	–	–	–	–	–
COc1cc(Nc2c(C#N)cnc3ccc(I)cc23)cc(OC)c1OC [compound 46, 46]	0.0048	9.7	4.2	0.26	–	–	–	–	–	–
COc1ccc2ncc(C#N)c(Nc3cc(OC)c(OC)c(OC)c3)c2c1 [compound 47, 47]	0.0024	3.2	1.9	0.092	–	–	–	–	–	–
COc1cc2ncc(C#N)c(Nc3cc(OC)c(OC)c(OC)c3)c2cc1OC [compound 48, 48]	–	–	–	–	–	–	–	–	–	Ki (GAK [1]; read-out: GAK Ki, binder): 0.00085 µM; Ki (SLK [2]; read-out: SLK Ki, binder): 0.57 µM; Ki (STK10 [3]; read-out: STK10 Ki, binder): 0.42 µM; IC50 ([4]; read-out: NanoBRET GAK IC50, binder): 0.006 µM
COc1cc(Nc2c(C#N)cnc3ccc(S(C)(=O)=O)cc23)cc(OC)c1OC [compound 49, 49]	0.21	1.2	1.5	> 5	–	–	–	–	–	–
COc1cc(Nc2c(C#N)cnc3cc(Cl)ccc23)cc(OC)c1OC [compound 50, 50]	0.0066	1.4	0.79	0.47	–	–	–	–	–	–
COc1cc(Nc2c(C#N)cnc3cc(Br)ccc23)cc(OC)c1OC [compound 51, 51]	0.0029	0.71	0.44	0.14	–	–	–	–	–	–
COc1cc(Nc2c(C#N)cnc3cc(I)ccc23)cc(OC)c1OC [compound 52, 52]	0.0052	0.49	0.2	0.2	–	–	–	–	–	–
COc1ccc2c(Nc3cc(OC)c(OC)c(OC)c3)c(C#N)cnc2c1 [compound 53, 53]	0.002	2.1	1.2	0.078	–	–	–	–	–	–
C#Cc1cccc(Nc2ncnc3cc(C#N)ccc23)c1 [compound 67, 67]	–	–	–	–	–	–	–	–	–	Ki (SLK [5]): 0.26 µM; IC50 [6]: > 5 µM; Ki (GAK [7]): 0.1 µM
C#Cc1cccc(Nc2c(C#N)cnc3ccccc23)c1 [compound 75, 75]	–	–	–	–	0.018	1.5	–	–	–	Ki (SLK [9]): 0.35 µM; Ki (STK10 [10]): 0.34 µM
C#Cc1cccc(Nc2c(C#N)cnc3ccc(F)cc23)c1 [compound 76, 76]	–	–	–	–	0.026	3.8	–	–	–	Ki (SLK [9]): 0.54 µM; Ki (STK10 [10]): 0.58 µM
C#Cc1cccc(Nc2c(C#N)cnc3ccc(Cl)cc23)c1 [compound 77, 77]	–	–	–	–	0.016	3.2	–	–	–	Ki (SLK [9]): 0.71 µM; Ki (STK10 [10]): 0.72 µM

More lines, main results first:

Ki (GAK [1]) [µM]	Ki (SLK [2]) [µM]	Ki (STK10 [3]) [µM]	IC50 [4] [µM]	Ki (GAK [8]) [µM]	IC50 [11] [µM]	Ki (SLK [15]) [µM]	Ki (STK10 [16]) [µM]	IC50 [17] [µM]	Compound	other results
–	–	–	–	0.017	4.4	–	–	–	C#Cc1cccc(Nc2c(C#N)cnc3ccc(Br)cc23)c1 [compound 78, 78]	Ki (SLK [9]): 1.2 µM; Ki (STK10 [10]): 1.1 µM
–	–	–	–	0.02	> 5	–	–	–	C#Cc1cccc(Nc2c(C#N)cnc3ccc(I)cc23)c1 [compound 79, 79]	Ki (SLK [9]): 1.1 µM; Ki (STK10 [10]): 1 µM
–	–	–	–	0.18	> 5	–	–	–	C#Cc1cccc(Nc2c(C#N)cnc3ccc(S(C)(=O)=O)cc23)c1 [compound 80, 80]	Ki (SLK [9]): > 55 µM; Ki (STK10 [10]): 42 µM
–	–	–	–	0.028	> 5	–	–	–	C#Cc1cccc(Nc2c(C#N)cnc3cc(Cl)ccc23)c1 [compound 84, 84]	Ki (SLK [9]): 0.18 µM; Ki (STK10 [10]): 0.21 µM
–	–	–	–	0.027	> 5	–	–	–	C#Cc1cccc(Nc2c(C#N)cnc3cc(Br)ccc23)c1 [compound 85, 85]	Ki (SLK [9]): 0.16 µM; Ki (STK10 [10]): 0.13 µM
–	–	–	–	0.019	> 5	–	–	–	C#Cc1cccc(Nc2c(C#N)cnc3cc(I)ccc23)c1 [compound 86, 4-((3-ethynylphenyl)amino)-7-iodoquinoline-3-carbonitrile]	Ki (SLK [12]): 0.075 µM; Ki (STK10 [13]): 0.08 µM
–	–	–	–	–	–	> 55	> 55	4.4	Fc1cc(Nc2ccnc3ccc(Br)cc23)cc(F)c1F [compound 103, 103]	Ki (GAK [14]): 0.023 µM
–	–	–	–	–	–	> 55	> 55	> 5	Fc1ccc(Nc2ccnc3ccc(Br)cc23)cc1F [compound 104, 104]	Ki (GAK [14]): 0.011 µM
–	–	–	–	–	–	> 55	> 55	> 5	Fc1cc(F)cc(Nc2ccnc3ccc(Br)cc23)c1 [compound 105, 105]	Ki (GAK [14]): 0.012 µM
–	–	–	–	–	–	36	21	0.94	Fc1ccc(Nc2ccnc3ccc(Br)cc23)cc1 [compound 108, 108]	–
–	–	–	–	–	–	> 55	> 55	> 5	Fc1ccc(Nc2ncnc3ccc(Br)cc23)cc1 [compound 109, 109]	Ki (GAK [14]): 0.12 µM
–	–	–	–	–	–	> 55	> 55	1.9	Fc1cccc(Nc2ccnc3ccc(Br)cc23)c1 [compound 110, 110]	Ki (GAK [14]): 0.019 µM
–	–	–	–	–	–	> 55	30	2.6	Fc1ccccc1Nc1ccnc2ccc(Br)cc12 [compound 111, 111]	Ki (GAK [14]): 0.049 µM
–	–	–	–	–	–	> 55	> 55	> 5	Brc1cccc(Nc2ccnc3ccc(Br)cc23)c1 [compound 112, 112]	Ki (GAK [14]): 0.072 µM
–	–	–	–	–	–	9.4	6	> 5	Brc1cccc(Nc2ncnc3ccc(Br)cc23)c1 [compound 113, 113]	Ki (GAK [14]): 0.084 µM
